The record followed here is ChEMBL document CHEMBL3039007, “Structure-based identification of OATP1B1/3 inhibitors” (Mol Pharmacol, 2013).

The target in series [1] is T1, Solute carrier organic anion transporter family member 1B3 (Homo sapiens, UniProt Q9NPD5).
T1 sequence (Q9NPD5 whole entry): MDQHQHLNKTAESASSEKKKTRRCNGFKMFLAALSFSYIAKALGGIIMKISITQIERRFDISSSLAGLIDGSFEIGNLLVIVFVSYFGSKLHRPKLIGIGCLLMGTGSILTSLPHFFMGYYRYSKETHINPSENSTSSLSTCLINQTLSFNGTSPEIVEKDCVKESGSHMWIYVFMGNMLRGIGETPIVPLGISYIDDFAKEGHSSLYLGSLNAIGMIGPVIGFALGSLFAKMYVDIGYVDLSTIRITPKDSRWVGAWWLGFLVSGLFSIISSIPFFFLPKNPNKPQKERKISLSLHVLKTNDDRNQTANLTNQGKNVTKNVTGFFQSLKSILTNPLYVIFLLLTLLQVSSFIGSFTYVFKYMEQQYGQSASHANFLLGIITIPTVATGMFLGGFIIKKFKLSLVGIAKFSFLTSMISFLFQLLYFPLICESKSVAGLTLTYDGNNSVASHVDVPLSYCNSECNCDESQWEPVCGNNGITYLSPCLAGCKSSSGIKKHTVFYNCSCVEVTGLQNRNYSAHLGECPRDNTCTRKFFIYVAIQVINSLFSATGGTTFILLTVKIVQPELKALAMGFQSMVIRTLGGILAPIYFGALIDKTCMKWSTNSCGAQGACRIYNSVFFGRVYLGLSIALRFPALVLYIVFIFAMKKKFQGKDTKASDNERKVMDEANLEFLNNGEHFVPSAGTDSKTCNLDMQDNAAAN
The settings on record: chinese hamster, cho, 10 µM.

In series [2] the target is T2, Solute carrier organic anion transporter family member 1B1 (Homo sapiens, UniProt Q9Y6L6).
T2 sequence (Q9Y6L6 whole entry): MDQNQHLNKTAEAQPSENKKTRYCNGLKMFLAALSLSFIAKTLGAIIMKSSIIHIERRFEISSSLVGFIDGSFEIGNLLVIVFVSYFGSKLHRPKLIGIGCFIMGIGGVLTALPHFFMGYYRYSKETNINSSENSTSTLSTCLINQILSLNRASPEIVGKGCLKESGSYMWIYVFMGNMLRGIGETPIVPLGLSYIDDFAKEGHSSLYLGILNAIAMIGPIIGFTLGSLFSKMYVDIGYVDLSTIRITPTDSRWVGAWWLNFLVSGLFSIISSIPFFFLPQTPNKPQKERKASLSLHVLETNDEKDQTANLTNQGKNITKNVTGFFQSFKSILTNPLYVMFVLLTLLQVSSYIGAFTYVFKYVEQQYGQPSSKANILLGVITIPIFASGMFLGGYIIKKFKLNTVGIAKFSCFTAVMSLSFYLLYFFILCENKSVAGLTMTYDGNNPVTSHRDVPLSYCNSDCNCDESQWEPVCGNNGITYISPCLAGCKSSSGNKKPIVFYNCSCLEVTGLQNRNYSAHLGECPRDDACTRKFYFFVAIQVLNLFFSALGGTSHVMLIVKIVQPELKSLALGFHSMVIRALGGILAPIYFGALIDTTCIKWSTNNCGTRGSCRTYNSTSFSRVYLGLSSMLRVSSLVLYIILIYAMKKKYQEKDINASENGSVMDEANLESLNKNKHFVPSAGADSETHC
As to conditions: chinese hamster, cho, 10 µM.

One may read the residual activity as the signal under treatment as a percentage of the control signal.

Starred links: 1 amine or outer side, 2 acyl side, 3 side chain; linkers in the order of their positions; H or OH if unused. Positions of bridges follow the written chain, without caps; N, C: chain ends. Non-standard residues stand in square brackets, D forms with d. Residues, ends and D or L forms follow the SMILES beside them. Chains are numbered I, II in the order given. Actinocin(9to1) = Cc1c2oc3c(C)ccc(C(=O)[*:1])c3nc-2c(C(=O)[*:2])c(N)c1=O; NMeV = CN[C@H](C(=O)O)C(C)C; Sar = CNCC(=O)O

As for `C=C[C@@]1(C)CC(=O)[C@]2(O)[C@@]3(C)[C@@H](O)CCC(C)(C)[C@@H]3[C@H](O)[C@H](OC(C)=O)[C@@]2(C)O1` [COLFORSIN], the values for the residual activity in series [1] and in series [2] were 83.25% and 118.8%, respectively.
The like results for `C[C@H]1[C@H]2CC[C@H]3[C@@H]4CC=C5C[C@@H](N(C)C)CC[C@]5(C)[C@H]4CC[C@]23CN1C` [CONESSINE] were, in that order, 111.5% and 100.9%.
Taken in the same sequence, the figures for `COc1cc(/C=C/CO)ccc1O` [CONIFERYL ALCOHOL] were 66.12% and 49.7%.
Regarding `CCC[C@H]1CCCCN1` [CONIINE], the figures for the residual activity in series [1] and in series [2] were 100.1% and 105.3%, respectively.
The like results for `C[C@@H]1O[C@@H](O[C@H]2CC[C@]3(C=O)[C@H]4CC[C@]5(C)[C@@H](C6=CC(=O)OC6)CC[C@]5(O)[C@@H]4CC[C@]3(O)C2)[C@H](O)[C@H](O)[C@H]1O` [CONVALLATOXIN] were, in that order, 95.81% and 102.3%.
The like results for `COc1cc2cc3c4cc(OC)c(OC)cc4cc[n+]3c(C)c2cc1OC.[Cl-]` [CORALYNE] were, in that order, 150.5% and 106.5%.
Regarding `CC(=O)OCC(=O)[C@@]1(O)CC[C@H]2[C@@H]3CCC4=CC(=O)CC[C@]4(C)[C@H]3C(=O)C[C@@]21C` [CORTISONE ACETATE], the residual activity is recorded as 98.8% in series [1] and 103.3% in series [2].
On to `C[C@]12CCC(=O)C=C1CC[C@@H]1[C@@H]2C(=O)C[C@@]2(C)[C@H]1CC[C@]2(O)C(=O)CO` [CORTISONE], for which the values for the residual activity in series [1] and in series [2] were 69.54% and 76.37%, respectively.
Taken in the same sequence, the figures for `CC(=O)OC[C@H]1O[C@@H](Oc2cc(OC(C)=O)c3c(=O)cc(-c4ccc(OC(C)=O)cc4)oc3c2)[C@H](OC(C)=O)[C@@H](OC(C)=O)[C@@H]1OC(C)=O` [COSMOSIIN HEXAACETATE] were 48.4% and 95.2%.
As to `COc1c2c(cc3c1OCO3)CC[N+](C)=C2.[Cl-]` [COTARNINE CHLORIDE], the residual activity is reported as 93.29% in series [1] and 85.95% in series [2].
Turning to `CN1C(=O)CC[C@H]1c1cccnc1` [COTININE], the results for the residual activity in series [1] and in series [2] were 103% and 106.5%, respectively.
On to `CCOP(=S)(OCC)Oc1ccc2c(C)c(Cl)c(=O)oc2c1` [COUMAPHOS], for which the residual activity in series [1] was 124.8%; in series [2], 99.64%.
On to `COc1ccccc1/C=C/C(=O)O` [COUMARINIC ACID METHYL ETHER], for which the residual activity is recorded as 119.3% in series [1] and 110.4% in series [2].
Taken in the same sequence, the figures for `O=c1ccc2ccccc2o1` [COUMARIN] were 99.05% and 116.6%.
In the case of `C=C1C(=O)O[C@H]2C[C@@H]1C(OC(C)=O)C/C(C)=C/CC/C(C)=C/CC[C@@]2(C)O` (some centres not stated) [CRASSIN ACETATE], the residual activity in series [1] worked out at 65.53%; in series [2] it was 60.87%.
Taken in the same sequence, the figures for `CN1CC(=O)NC1=N` [CREATININE] were 93.64% and 105.7%.
The like results for `O=C([O-])c1cc(=O)c2c(OCC(O)COc3cccc4oc(C(=O)[O-])cc(=O)c34)cccc2o1.[Na+].[Na+]` [CROMOLYN SODIUM] were, in that order, 94.62% and 101.2%.
On to `CN1CCN(C(c2ccccc2)c2ccccc2)CC1` [CYCLIZINE], for which the residual activity in series [1] is 103%; in series [2] it was 88.13%.
As to `CN(C)CCC=C1c2ccccc2C=Cc2ccccc21.Cl` [CYCLOBENZAPRINE HYDROCHLORIDE], the residual activity in series [1] is recorded as 102.1%; in series [2], 85.24%.
On to `NC1=NCCN1CC(=O)O` [CYCLOCREATINE], for which the residual activity in series [1] was found to be 127.5%; in series [2] it was 108.2%.
On to `NC1(C(=O)O)CCCC1` [CYCLOLEUCINE], for which the residual activity in series [1] turned out to be 108.5%; in series [2], 99.09%.
For the molecule `CN(C)CCOC(=O)C(c1ccccc1)C1(O)CCCC1.Cl` (configuration not stated) [CYCLOPENTOLATE HYDROCHLORIDE], the values for the residual activity in series [1] and in series [2] were 100.2% and 87.23%, respectively.
The like results for `CO[C@H]1C[C@H](O[C@H]2CC[C@]3(C=O)[C@H]4CC[C@]5(C)[C@@H](C6=CC(=O)OC6)CC[C@]5(O)[C@@H]4CC[C@]3(O)C2)O[C@H](C)[C@H]1O` [CYMARIN] were, in that order, 87.59% and 87.74%.
The like results for `CC(=O)[C@@]1(O)CC[C@H]2[C@@H]3C=C(Cl)C4=CC(=O)[C@@H]5C[C@@H]5[C@]4(C)[C@H]3CC[C@@]21C` [CYPROTERONE] were, in that order, 112.2% and 30.6%.
With `Cl.Cl.NCCSSCCN` [CYSTAMINE DIHYDROCHLORIDE], the residual activity was determined as 89.2% in series [1] and 111.3% in series [2].
For the molecule `Nc1ccn([C@@H]2O[C@H](CO)[C@@H](O)[C@@H]2O)c(=O)n1` [CYTARABINE], the residual activity in series [1] is 95.76%; in series [2], 78.64%.
Taken in the same sequence, the figures for `Nc1ccn([C@@H]2O[C@H](CO)[C@@H](O)[C@H]2O)c(=O)n1` [CYTIDINE] were 114% and 99.44%.
Taken in the same sequence, the figures for `O=c1cccc2n1C[C@@H]1CNC[C@H]2C1` [CYTISINICLINE] were 106.2% and 99.71%.
Take `N[C@H](Cc1ccccc1)C(=O)O` [D-PHENYLALANINE]: the residual activity stood at 84.71% in series [1] and 73.08% in series [2].
Consider `CN(C)/N=N/c1[nH]cnc1C(N)=O` [DACARBAZINE], for which the residual activity in series [1] worked out at 90.13%; in series [2], 97.65%.
As for `COC(=O)c1c(Cl)c(Cl)c(C(=O)OC)c(Cl)c1Cl` [DACTHAL], the residual activity in series [1] turned out to be 106.6%; in series [2], 103.5%.
With `Cc1c2oc3c(C)ccc(C(=O)N[C@@H]4C(=O)N[C@H](C(C)C)C(=O)N5CCC[C@H]5C(=O)N(C)CC(=O)N(C)[C@@H](C(C)C)C(=O)O[C@@H]4C)c3nc-2c(C(=O)N[C@@H]2C(=O)N[C@H](C(C)C)C(=O)N3CCC[C@H]3C(=O)N(C)CC(=O)N(C)[C@@H](C(C)C)C(=O)O[C@@H]2C)c(N)c1=O` [DACTINOMYCIN] (I: T[dV]P[Sar][NMeV] / II: T[dV]P[Sar][NMeV]; ester I:1-I:C, II:1-II:C; linker I:N-II:N via Actinocin(9to1)), the residual activity in series [1] was determined as 85.16%; in series [2], 57.98%.
The like results for `O=c1c(-c2ccc(O)cc2)coc2cc(O)ccc12` [DAIDZEIN] were, in that order, 103.8% and 139.3%.
Taken in the same sequence, the figures for `C=CC(C1=CC(=O)C(OC)=CC1=O)c1ccc(O)cc1` (configuration not stated) [DALBERGIONE, 4-METHOXY-4'-HYDROXY-] were 246.6% and 114.1%.
`C=CC(C1=CC(=O)C=CC1=O)c1ccccc1` (configuration not stated) [DALBERGIONE]: the results for the residual activity in series [1] and in series [2] were 269.8% and 72.19%, respectively.
As for `C#C[C@]1(O)CC[C@H]2[C@@H]3CCC4=Cc5oncc5C[C@]4(C)[C@H]3CC[C@@]21C` [DANAZOL], the figures for the residual activity in series [1] and in series [2] were 95.7% and 80.9%, respectively.
